Consider one compound from patent publication US7498336B2, “Deazaflavin compounds and methods of use thereof” (The United States of America as represented by the …, priority 2003, dated 2009).

The target in one experiment is T1, rabbit E1 (Oryctolagus cuniculus, UniProt Q29504).
T1 construct: purchased Calbiochem 6620700
T1 sequence (Q29504 1-1058): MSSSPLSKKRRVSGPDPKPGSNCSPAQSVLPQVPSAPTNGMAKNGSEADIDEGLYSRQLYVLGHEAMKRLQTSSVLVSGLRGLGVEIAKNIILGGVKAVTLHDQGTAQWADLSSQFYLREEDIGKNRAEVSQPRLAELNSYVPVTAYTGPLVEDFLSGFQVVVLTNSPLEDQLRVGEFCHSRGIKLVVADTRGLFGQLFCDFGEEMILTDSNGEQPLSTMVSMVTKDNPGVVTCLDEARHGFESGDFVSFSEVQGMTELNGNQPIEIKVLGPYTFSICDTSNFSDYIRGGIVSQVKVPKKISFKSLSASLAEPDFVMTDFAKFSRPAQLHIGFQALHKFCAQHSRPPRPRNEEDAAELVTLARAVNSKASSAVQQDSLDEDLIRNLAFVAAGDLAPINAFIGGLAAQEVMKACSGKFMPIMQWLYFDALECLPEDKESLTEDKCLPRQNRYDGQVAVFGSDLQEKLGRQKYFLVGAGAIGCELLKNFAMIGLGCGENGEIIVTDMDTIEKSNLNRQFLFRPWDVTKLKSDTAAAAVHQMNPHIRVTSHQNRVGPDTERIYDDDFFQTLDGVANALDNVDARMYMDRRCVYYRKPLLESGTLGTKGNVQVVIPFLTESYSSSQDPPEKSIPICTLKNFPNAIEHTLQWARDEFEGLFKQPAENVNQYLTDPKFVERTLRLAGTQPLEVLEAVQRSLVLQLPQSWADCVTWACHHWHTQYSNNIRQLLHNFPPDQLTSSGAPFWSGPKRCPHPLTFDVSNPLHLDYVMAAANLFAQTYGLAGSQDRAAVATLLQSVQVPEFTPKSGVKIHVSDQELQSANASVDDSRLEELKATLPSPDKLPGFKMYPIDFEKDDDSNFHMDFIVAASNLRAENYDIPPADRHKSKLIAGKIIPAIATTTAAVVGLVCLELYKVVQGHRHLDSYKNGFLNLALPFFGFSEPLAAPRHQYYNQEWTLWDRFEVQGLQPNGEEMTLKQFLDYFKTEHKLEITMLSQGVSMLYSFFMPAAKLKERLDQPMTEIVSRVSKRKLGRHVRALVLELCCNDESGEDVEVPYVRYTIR
As to the kind of experiment: E1 only assay (thiol-ester linkage of ubiquitin with E1). It counts as biochemical. The settings on record: FIG. 2D. How it is done: 2 μl rabbit E1 +12 μl of 1× reaction buffer are mixed together with the test compound followed by addition of 1 μl of ^32P Ub is added for 10 minutes at room temperature followed by resolution by SDS-PAGE under non-reducing conditions to maintain thiol-ester linkages and exposure as above.

The subject of experiment [1] is Normal human fibroblast MRC-5. As to the kind of experiment: Cell based assay for accumulation of MDM2 and p53 (immunoblot). The settings on record: MRC-5 cells, 50 μM, 8 hours. How it is done:
Methods: Normal human fibroblast MRC-5 were chosen to determine whether the compounds from the high throughput screening can inhibit the E3 activity of Mdm2, i.e. stabilizing MDM2 and p53 in vivo. After being seeded in 12-well tissue culture cluster overnight, the cells were treated with 50 μM of the compounds for 8 hours. They were harvested with trypsin-EDTA, washed with PBS, and lysed with RIPA buffer. Following removal of insoluble pellet by centrifugation for 20 minutes at 10000 rpm, the lysate was separated on 4-20% gradient SDS-polyacrylamide gel and transferred onto nitrocellulose membrane. The membrane was then blotted with anti-p53 antibody (DO-1), anti-MDM2 antibodies (Ab-1 and Ab-2), anti-p27 (Santa Cruz), anti-Nedd4, and anti-p21Waf1 antibody. After extensive washing with PBS containing 0.5% Triton X-100, it was incubated with HRP-labeled donkey anti-mouse antibody and visualized using enhanced chemiluminescence.
In general terms: Immunoblotting shows a protein as a band on a membrane.

With `O=c1nc2n(-c3cccc(Cl)c3)c3ccc([N+](=O)[O-])cc3cc-2c(=O)[nH]1` [Compound 98C07, 10-(-3-chloro-phenyl)-7-nitro-10H-pyrimido[4,5-b]quinoline-2,4-dione], the “inhibition of thiol-ester linkage of ubiquitin with E1” value at rabbit E1 is given as “inhibits neither thiol-ester linkages of ubiquitin with E1 nor E2”. Further, in experiment [1], the MDM2 level entry is “specifically increase MDM2 and p53”; the p53 level entry was “specifically increase MDM2 and p53”.
